The values below come from ChEMBL document CHEMBL3727361, “Nitrogen bicyclic compounds as inhibitors for Scyl1 and Grk5” (2014).

A value given as a limit tells only on which side of the number the result lay.

The assay has as its system Beta-TC6. Description: Increase in insulin release in mouse BetaTC6 cells assessed as relative insulin release activity at 10 uM incubated for 2 to 4 hrs by FRET based HTRF assay relative to sunitinib. In kind it is functional.
As for `COc1ccccc1-c1ccc2ncc(-c3ccc(F)c(Cl)c3)n2n1`, the Activity was found to be 20%.

Turning to `OCc1ccc(-c2cn3c(-c4cccc(Cl)c4)cnc3cn2)cc1`, the Activity is reported as 20%. In the case of `NC(=O)c1cccc(-c2ccc3nnc(-c4cscn4)n3c2)c1` it was 20%; in that of `OCc1ccc(-c2ccc3ncc(-c4cccnc4)n3n2)cc1`, 20%. In the case of `COc1ccc(CNc2ccc3ncc(-c4ccc5[nH]ccc5c4)n3n2)cc1` it was 20%.

Turning to `Oc1cccc(-c2cnc3cnc(-c4cccs4)cn23)c1`, the Activity was found to be 20%.

`c1cncc(-c2cnc3cnc(-c4cc5ccccc5s4)cn23)c1`: the Activity was found to be 20%.

On to `COc1cc(-c2ccc3ncc(-c4cccs4)n3n2)ccc1O`, for which the Activity was determined as 20%. Consider `OCc1ccc(-c2cnc3cnc(-c4ccco4)cn23)cc1`, for which the Activity was determined as 20%. The value for `OC1CCC(Nc2ccc3ncc(Br)n3n2)CC1` (stereo not given) was 10%; that for `CN(C)CCCOc1ccc(-c2nnc3ccc(-c4ccc(Cl)cc4)cn23)cc1` was 20%. Consider `CN1CCN(C(=O)c2cccc(-c3ccc4nnc(-c5ccc6nccnc6c5)n4c3)c2)CC1`, for which the Activity is listed as 20%.

On to `Fc1ccc(-c2ccc3nnc(-c4cscn4)n3c2)cc1Cl`, for which the Activity worked out at 20%. The value for `CC(C)Oc1cccc(-c2cn3c(-c4cccs4)cnc3cn2)c1` was 20%; that for `CN(C)CCCOc1ccc(-c2cn3c(-c4ccc(N(C)C)cc4)cnc3cn2)cn1` was 50%; that for `O=C(NCCO)c1ccc(-c2cnc3cccnn23)cc1` was 10%. The value for `Cc1ccccc1-c1cn2c(-c3ccc(CCC(=O)O)cc3)cnc2cn1` was 20%. In the case of `CS(=O)(=O)c1cccc(-c2ccc3nnc(-c4ccccn4)n3c2)c1` it was 20%; in that of `Cn1cc(-c2cnc3cnc(-c4cc5ccccc5s4)cn23)cn1`, 20%.

For the compound `O=C(NCCO)c1cccc(-c2cn3c(-c4cccc(OC(F)(F)F)c4)cnc3cn2)c1`, the Activity is 20%.

In the case of `COc1cc(-c2cn3c(-c4ccc5ncccc5c4)cnc3cn2)cc(OC)c1OC`, the Activity is 20%. In the case of `CC(C)N1CCN(c2ccc(-c3cn4c(-c5ccc(C(=O)NC6CC6)cc5)cnc4cn3)cc2)CC1` it was 20%; in that of `COc1cc(-c2nnc3ccc(-c4cccc(F)c4)cn23)ccc1O`, 50%; in that of `CN1CCN(c2ccc(-c3cnc4cccnn34)cn2)CC1`, 10%. The value for `OCc1cccc(-c2cnc3cnc(-c4ccccc4)cn23)c1` was 20%; that for `CN(C)c1ccccc1-c1cn2c(-c3cccs3)cnc2cn1` was 20%; that for `Clc1cccc(-c2nnc3ccc(-c4ccc5c(c4)OCO5)cn23)c1` was 50%. In the case of `COc1ccc(-c2cnc3ccc(N[C@H](CO)C(C)C)nn23)c(OC)c1` it was 20%.

Take `COc1ccc(-c2ccc3nnc(-c4cscn4)n3c2)c(C)c1`: the Activity came out at 50%. The value for `FC(F)(F)Oc1ccc(-c2cn3c(-c4cccs4)cnc3cn2)cc1` was 20%.

As to `c1ccc(Oc2cccc(-c3ccc4nnc(-c5ccncc5)n4c3)c2)cc1`, the Activity is given as 20%.

Take `CCOc1cccc(-c2cn3c(-c4ccc(CCC(=O)O)cc4)cnc3cn2)c1`: the Activity result is on record as “>=100%”. The value for `CNc1ccc2ncc(-c3cccc(C(=O)N(C)C)c3)n2n1` was 20%; that for `OCc1ccc(-c2cn3c(-c4cccs4)cnc3cn2)cc1` was 20%; that for `Cc1ccccc1-c1cn2c(-c3ccc4c(c3)OCO4)cnc2cn1` was 20%.

For `NC(=O)c1ccc(-c2ccc3ncc(-c4ccccc4)n3n2)cc1`, the Activity is 20%.

`Oc1cccc(-c2cnc3ccc(-c4cccc5ncccc45)nn23)c1`: the Activity was 10%. In the case of `COc1cc(C#Cc2ccc3nnc(-c4ccc(OCCCN(C)C)cc4)n3c2)cc(OC)c1` it was 20%; in that of `O=C(NCCO)c1ccc(-c2cn3c(-c4ccsc4)cnc3cn2)cc1`, 10%; in that of `CC(=O)c1cccc(-c2cnc3ccc(-c4ccc(N)nc4)nn23)c1`, 20%. The value for `CC(=O)c1ccc(-c2cn3c(-c4ccc(C(=O)NC5CC5)cc4)cnc3cn2)s1` was 20%; that for `FC(F)(F)Oc1cccc(-c2ccc3nnc(-c4ccncc4)n3c2)c1` was 20%. In the case of `CN(C)c1ccc(-c2cnc3cnc(-c4ccc(CO)cc4)cn23)cc1`, the Activity is on record as 50%. In the case of `CN(C)c1cccc(-c2cnc3cnc(-c4ccncc4)cn23)c1` it was 20%. The value for `COc1cccc(-c2ccc3ncc(-c4cccc(Cl)c4)n3n2)c1` was 10%; that for `CN(C)c1ccc(-c2cnc3cnc(-c4ccc(O)cc4)cn23)cc1` was 50%; that for `c1cncc(-c2cnc3cnc(-c4ccc(N5CCOCC5)cc4)cn23)c1` was 20%. In the case of `CS(=O)(=O)c1ccc(-c2cnc3ccc(Cc4ccccc4)nn23)cc1` it was 10%. With `c1ccc(-c2nnc3ccc(-c4ccc5c(c4)OCO5)cn23)cc1`, the Activity is listed as 50%. On to `CC(=O)c1cccc(-c2cnc3cnc(-c4cccs4)cn23)c1`, for which the Activity is reported as 50%. Regarding `c1ccc(-c2cnc3cnc(-c4ccsc4)cn23)cc1`, the Activity is recorded as 20%. In the case of `COc1ccc(-c2nnc3ccc(-c4ccc(S(C)(=O)=O)cc4)cn23)cc1OC`, the Activity amounted to 10%. In the case of `Nc1cccc(-c2cnc3ccc(NC4CCOCC4)nn23)c1` it was 20%. The value for `CC(=O)Nc1cccc(-c2ccc3nnc(-c4ccccc4)n3c2)c1` was 50%. `CC(C)Oc1cccc(-c2cn3c(-c4ccc5c(c4)OCO5)cnc3cn2)c1`: the Activity was found to be 50%. In the case of `FC(F)(F)Oc1cccc(-c2nnc3ccc(-c4cccs4)cn23)c1`, the Activity was 50%.

Take `COc1cc(-c2cnc3cnc(-c4ccc(OCCCN(C)C)nc4)cn23)ccc1O`: the Activity is given as 20%. The value for `c1cncc(CCNc2ccc3ncc(-c4ccc(N5CCOCC5)cc4)n3n2)c1` was 50%; that for `CN(C)C(=O)c1ccc(-c2ccc3nnc(-c4cccc(C(F)(F)F)c4)n3c2)cc1` was 20%.

Turning to `COc1ccc(-c2cn3c(-c4ccc(OC)nc4)cnc3cn2)cn1`, the Activity was 20%. The value for `FC(F)(F)c1cccc(-c2cnc3ccc(-c4ccncc4)nn23)c1` was 20%; that for `OCc1cccc(-c2cnc3cnc(-c4cccs4)cn23)c1` was 20%; that for `FC(F)(F)c1cccc(C#Cc2ccc3nnc(-c4ccncc4)n3c2)c1` was 10%. In the case of `COc1cc(-c2cn3c(-c4ccccc4Cl)cnc3cn2)ccc1O` it was 20%. The value for `CN(C)CCCOc1ccc(-c2nnc3ccc(C#Cc4ccc(C(=O)N(C)C)cc4)cn23)cc1` was 20%.

As to `COc1cc(OC)cc(-c2cn3c(-c4ccc5c(c4)OCO5)cnc3cn2)c1`, the Activity was determined as 50%.

As for `CC(C)c1cccc(-c2ccc3nnc(-c4cccnc4)n3c2)c1`, the Activity amounted to 50%. In the case of `COc1ccc(-c2ccc3nnc(-c4ccccc4)n3c2)c(C)c1` it was “>=100%”; in that of `Nc1ccc(-c2cn3c(NC(=O)c4ccccc4)cnc3cn2)cc1`, 20%; in that of `COc1ccc(-c2nnc3ccc(-c4cccc(N(C)C)c4)cn23)cc1OC`, 50%. The value for `CN(C)CCCNC(=O)c1ccc(-c2cn3c(-c4ccc5c(ccn5C)c4)cnc3cn2)cc1` was 20%; that for `COc1cc(-c2cn3c(-c4ccc5ncccc5c4)cnc3cn2)ccc1O` was 20%; that for `c1csc(-c2cn3c(-c4ccncc4)cnc3cn2)c1` was 20%. In the case of `Cn1cc(-c2ccc3nnc(-c4ccc5c(c4)OCO5)n3c2)cn1` it was 50%; in that of `Fc1cccc(-c2cnc3cnc(-c4ccc5c(c4)OCO5)cn23)c1`, 20%; in that of `CS(=O)(=O)Nc1cccc(-c2cn3c(-c4ccc5ncccc5c4)cnc3cn2)c1`, 20%.

As for `COc1ccc(-c2ccc3ncc(-c4cccc(Cl)c4)n3n2)c(C)c1`, the Activity was 10%.

Take `COc1cccc(CC(=O)Nc2cnc3cnc(-c4ccc5[nH]ccc5c4)cn23)c1`: the Activity amounted to 10%. Turning to `FC(F)(F)c1cccc(-c2cnc3ccc(C4CC4)nn23)c1`, the Activity is reported as 10%.

Turning to `CN1CCN(C(=O)c2cccc(-c3cnc4cnc(-c5ccc(CNc6ccccc6)cc5)cn34)c2)CC1`, the Activity is recorded as 10%. For the compound `O=C(O)CCc1ccc(-c2cnc3cnc(-c4cccc(Cl)c4)cn23)cc1`, the Activity amounted to 20%.

As to `COc1cc(-c2ccc3ncc(-c4ccc(F)c(Cl)c4)n3n2)cc(OC)c1OC`, the Activity was 10%. In the case of `Cn1ccc2cc(-c3cn4c(-c5ccc6ncccc6c5)cnc4cn3)ccc21`, the Activity result is on record as “>=100%”.

With `Cc1cc(-c2cnc3cccnn23)cc(C)c1O`, the Activity is 10%. The value for `N#Cc1ccc(-c2ccc3nnc(-c4cccc(O)c4)n3c2)cc1` was 50%. The value for `CN(C)c1ccc(-c2cnc3cnc(-c4cccc(C(=O)NCCO)c4)cn23)cc1` was 20%; that for `Clc1cccc(-c2nnc3ccc(-c4cncc5ccccc45)cn23)c1` was 50%; that for `c1cncc(-c2cnc3ccc(-c4ccoc4)nn23)c1` was 20%. In the case of `Cn1cc(-c2cnc3cnc(-c4ccncc4)cn23)cn1` it was 20%; in that of `CN(C)c1ccc(-c2cnc3cnc(-c4ccccc4N(C)C)cn23)cc1`, 20%; in that of `c1ccc(-c2cn3c(-c4ccc5c(c4)OCO5)cnc3cn2)cc1`, 50%. With `CN(C)C(=O)c1ccc(-c2cnc3cnc(-c4ccccc4Oc4ccccc4)cn23)cc1`, the Activity came to 20%. In the case of `COc1cc(-c2cnc3cnc(-c4ccc5c(c4)OCO5)cn23)ccc1O` it was 20%; in that of `CC(=O)c1cccc(-c2cnc3cnc(-c4ccc(C(=O)NCCN(C)C)cc4)cn23)c1`, 20%.

For the compound `N#Cc1ccc(-c2cnc3cnc(-c4ccc(Cl)cc4)cn23)cc1`, the Activity is recorded as 50%.
